The values that follow are results of earlier work, collected in article PMC11510164 (Pharmaceuticals, 2024).

One data set relates to rats. The note with it: rat, in vivo, po.
Take `CC1CCC(C(C)C)C(O)C1` (racemic) [MNT, (±)-menthol]: the LD50 is on record as 3000 mg/kg.

System in another data set: not given
The following applies: 25 °C.
On to `Cc1cccc(Nc2ccccc2C(=O)O)c1C` [MFA, Mefenamic acid, reference compound], for which the water solubility was 10 to 20 µg/mL.

Still in this data set, the particulars now being: pure component (ChCl: solid); ref per cell: 90, 123, 125, 126, 127, 129, 137, 139.
For `CC1CCC(C(C)C)C(O)C1` (racemic) [MNT, (±)-menthol], the “Density (g/cm^3)” value is 0.89 [90] g/cm^3. As to `N=C(N)NCCC[C@H](N)C(=O)O` [Arg, L-Arginine], the “Density (g/cm^3)” value was 1.42 [126] g/cm^3. Take `C[N+](C)(C)CCO` [ChCl, Choline chloride]: the “Density” value was roughly 1.205 g/mL. For the compound `N[C@@H](CS)C(=O)O` [Cys, L-Cysteine], the “Density (g/cm^3)” value was 1.66 [126] g/cm^3.

On to `CCCCCCCCCC(=O)O` [Dec, Decanoic acid (capric acid)], for which the “Density (g/cm^3)” value is 0.89 [126] g/cm^3. Regarding `OC[C@H]1OC(O)(CO)[C@@H](O)[C@@H]1O` (stereo partly drawn) [Fru, D-(−)-fructose], the “Density (g/cm^3)” value was 1.60 [126] g/cm^3. `O=C(O)CO` [Gla, Glycolic acid]: the “Density (g/cm^3)” value is 1.26 [126] g/cm^3. For `OC[C@H]1O[C@H](O)[C@H](O)[C@@H](O)[C@@H]1O` [Glu, D-(+)-glucose], the “Density (g/cm^3)” value was 1.5620 [126] g/cm^3.

Regarding `OCC(O)CO` [Gly, Glycerol], the “Density (g/cm^3)” value was 1.26 [129] g/cm^3. For the compound `CC(C)Cc1ccc(C(C)C(=O)O)cc1` (stereo not shown) [IBU, Ibuprofen, reference compound], the “Density (g/cm^3)” value is 1.03 [123] g/cm^3. Consider `CCCCCCCCCCCCCC(=O)OC(C)C` [IPM, Isoporpyl miristate], for which the “Density (g/cm^3)” value is 0.85 [126] g/cm^3. For the compound `C[C@H](O)C(=O)O` [Lac, L-lactic acid], the “Density (g/cm^3)” value was 1.25 [129] g/cm^3. Consider `C=C(C)[C@H]1CC=C(C)CC1` [Lim, (R)-(+)-limonene], for which the “Density (g/cm^3)” value is 0.84 [126] g/cm^3. On to `Cc1cccc(Nc2ccccc2C(=O)O)c1C` [MFA, Mefenamic acid, reference compound], for which the “Density (g/cm^3)” value was 1.20 [125] g/cm^3. Consider `CCCCCCCC/C=C\CCCCCCCC(=O)O` [OLA, Oleic acid], for which the “Density (g/cm^3)” value is 0.89 [126] g/cm^3. `O=C(O)C(=O)O` [Oxa, Oxalic acid]: the “Density (g/cm^3)” value is 1.90 [126] g/cm^3. As to `CC(O)CO` (stereo not shown) [PG, Propylene glycol], the “Density (g/cm^3)” value was 1.04 [126] g/cm^3. `OC[C@@H](O)[C@@H](O)[C@H](O)[C@@H](O)CO` [Sor, D-(−)-sorbitol]: the “Density (g/cm^3)” value was 1.47 [129] g/cm^3. For the compound `OC[C@@H](O)[C@H](O)[C@@H](O)CO` [Xyl, Xylitol], the “Density (g/cm^3)” value was 1.50 [137] g/cm^3.

The same data set, now with this note: sol. 70%.
On to `C[N+](C)(C)CCO` [ChCl, Choline chloride], for which the “Density” value was roughly 1.1 g/mL.
